Laboratory results taken from patent publication US9062041B2 (Bayer Intellectual Property GmbH, priority 2011, dated 2015).

Key:
[1] = target: EP2 subtype of the human PGE2 receptor (Homo sapiens, UniProt P43116); assay: cAMP antagonism test on the human EP2 receptor (HTRF cAMP detection); format: cell-based; conditions: hEP2 receptor, read-out: Antagonism hEP2 IC50
Method in brief: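 Cells expressing human EP2 preincubated 20 min at RT with compound (0.8 nM–16.5 μM), then stimulated 60 min with PGE2 (3× solution 1.5 nM) in PBS-IBMX. After 20 min lysis, cAMP measured by competitive HTRF with cAMP-d2 and Eu cryptate anti-cAMP antibody (665/620 nm ratio).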

[2] = target: EP4 subtype of the human PGE2 receptor (Homo sapiens, UniProt P35408); assay: cAMP antagonism test on the human EP4 receptor (HTRF cAMP detection); format: cell-based; conditions: selectivity towards hEP4, IC50 measured by cAMP antagonism test
EP4 subtype of the human PGE2 receptor, sequence (P35408 whole entry): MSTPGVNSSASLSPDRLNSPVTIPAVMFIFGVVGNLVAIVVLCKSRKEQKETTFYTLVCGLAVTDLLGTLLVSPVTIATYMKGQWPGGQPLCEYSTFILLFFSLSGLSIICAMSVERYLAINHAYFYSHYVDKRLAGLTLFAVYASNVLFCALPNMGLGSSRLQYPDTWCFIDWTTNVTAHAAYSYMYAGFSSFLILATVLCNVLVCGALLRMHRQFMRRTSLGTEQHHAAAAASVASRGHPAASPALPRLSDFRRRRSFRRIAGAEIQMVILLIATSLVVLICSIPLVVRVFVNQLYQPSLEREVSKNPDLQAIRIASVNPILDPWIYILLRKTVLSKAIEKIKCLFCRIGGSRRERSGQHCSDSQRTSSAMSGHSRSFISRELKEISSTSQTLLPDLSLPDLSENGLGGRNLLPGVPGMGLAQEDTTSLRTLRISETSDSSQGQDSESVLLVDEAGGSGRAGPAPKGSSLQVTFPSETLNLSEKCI
Method in brief: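 Cells expressing human EP4 preincubated 20 min at RT with compound (0.8 nM–16.5 μM), then stimulated with PGE2 (0.3 nM in 3× solution, with IBMX) 60 min at RT. After lysis, cAMP measured by HTRF competition (665/620 nm ratio); antagonism seen as rise in FRET signal.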

cumulus-oocyte complexes = assay: Cumulus expansion test in vitro; format: cell-based, mice (strain: B6D2F1); conditions: for inhibition at 1 µM / inhibition at 0.5 µM: Mus musculus, 0.3 μM PGE2 for stimulation; for inhibition at 1 µM: read-out: % reduction at 1 μM (reduction in the cumulus expansion); for inhibition at 0.5 µM: read-out: % reduction at 0.5 μm (reduction in the cumulus expansion)
Procedure: 4.2. Cumulus Expansions Test In Vitro In immature female mice (strain: B6D2F1 from Charles River), at an age of 14-18 days, the folliculogenesis was induced by a single administration (intraperitoneal) of 10 IU of PMSG (pregnant mare serum gonadotropin; Sigma G-4877, Lot 68H0909). 47-50 hours after the injection, the ovaries were removed and the cumulus-oocyte complexes removed. At this stage, the cumulus complex is not yet expanded. The cumulus-oocyte complexes were now incubated for 20-24 hours with prostaglandin E2 (PGE) (0.3 μM), vehicle control (ethanol) or test substances. Medium: alpha-MEM medium with 0.1 mM IBMX, pyruvate (0.23 mM), glutamine (2 mM), pen/strep 100 IU/ml pen. and 100 μg/ml strep.), HSA (8 mg/ml) and foetal bovine serum (FBS, 10%). The cumulus expansion was then established through the subdivision into four stages (after Vanderhyden et al. Dev Biol. 1990 August; 140(2):307-317).

human PGD receptor = target: T1, human PGD receptor (Homo sapiens, UniProt Q13258); assay: cAMP antagonism test on the human prostaglandin D receptor (HTRF cAMP detection); format: cell-based; conditions: selectivity towards hDP, IC50 measured by cAMP antagonism test
T1 sequence (Q13258 1-359): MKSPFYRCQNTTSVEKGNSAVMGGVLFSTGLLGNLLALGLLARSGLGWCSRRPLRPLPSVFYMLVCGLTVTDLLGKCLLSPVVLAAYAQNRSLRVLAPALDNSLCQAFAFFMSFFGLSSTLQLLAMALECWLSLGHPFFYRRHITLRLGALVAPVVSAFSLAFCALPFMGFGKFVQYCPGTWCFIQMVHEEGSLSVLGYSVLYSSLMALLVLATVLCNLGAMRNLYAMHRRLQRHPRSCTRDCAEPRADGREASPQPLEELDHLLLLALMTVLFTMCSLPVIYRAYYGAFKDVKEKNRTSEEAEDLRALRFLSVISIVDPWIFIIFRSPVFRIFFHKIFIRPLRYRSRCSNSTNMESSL
Method in brief: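 Cells pre-mixed with cAMP-d2 were preincubated with compound (0.8 nM–16.5 μM) for 20 min at RT, then stimulated with 3× PGD2 solution (6 nM, in PBS-IBMX) for 30 min at RT. After lysis (20 min), HTRF read at 665/620 nm; antagonism seen as rise in FRET ratio.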

[3] = tested on: female cynomolgus monkeys (Macaca Fascicularis); assay: In-vivo action on fertility in non-human primates (mating study); conditions: 6 months, 10 mg/kg (Example 17 once daily, Example 56 twice daily)
Procedure: 4.4 In-Vivo Action on Fertility in Non-Human Primates (Cynomolgus):
In order to study the effect of substances on fertility, mating studies can be performed in monkeys (Jensen et al. Contraception 81 (2010) 165-171). For this, the test substances are administered to female cynomolgus monkeys (Macaca Fascicularis) which are being kept in groups, then the animals are mated with a male animal. Matings are checked for by sperm detection in daily vaginal smears. Pregnancies resulting therefrom are identified by hormone determinations and ultrasound examinations. Through the changes in the serum oestradiol concentrations during the cycle, (rise before the midcycle LH peak), the fertile phase within a cycle of the individual animals can be determined Matings in this fertile period are described as “timed matings” (matings in the fertile phase). Apart from the absolute number of pregnancies occurring, the effect on the fertility can also be expressed as pregnancies per “timed matings”.
To test the action of EP2 receptor antagonists on fertility in monkeys, Examples 17 and 56 according to the invention were administered over 6 months, dissolved in 0.5 ml castor oil. Example 17 was administered once daily at a dosage of 10 mg/kg (n=10 animals), while Example 56 was administered twice daily at a dosage of 10 mg/kg (n=9 animals). Only the vehicle was administered to a control group (n=10 animals). In the first month of the treatment, no male animal was placed with the female animals. After this, female and male animals were kept together over 5 months, with detection of pregnancies and cycle monitoring.

EP2 subtype of the human PGE2 receptor, sequence (P43116 whole entry): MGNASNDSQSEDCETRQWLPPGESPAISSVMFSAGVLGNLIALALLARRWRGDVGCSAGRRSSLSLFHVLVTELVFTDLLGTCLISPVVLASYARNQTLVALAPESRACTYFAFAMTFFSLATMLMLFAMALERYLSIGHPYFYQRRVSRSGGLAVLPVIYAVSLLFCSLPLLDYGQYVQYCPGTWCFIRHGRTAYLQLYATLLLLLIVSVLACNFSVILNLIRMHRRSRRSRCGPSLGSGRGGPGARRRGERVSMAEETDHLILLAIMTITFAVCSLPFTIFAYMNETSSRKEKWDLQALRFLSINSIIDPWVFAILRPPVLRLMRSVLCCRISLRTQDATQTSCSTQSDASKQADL

SMILES | IC50 [1] [µM] | Selectivity hEP2/hEP4 [2] | Selectivity hEP2/hDP (human PGD receptor) | inhibition at 1 µM (cumulus-oocyte complexes) [%] | inhibition at 0.5 µM (cumulus-oocyte complexes) [%] | % Pregnancies/"timed mating" [3] [%] | Pregnancies [3] | suppression of the cumulus expansion (cumulus-oocyte complexes; concentration of 100-200 μM, PGE2 0.3 μM)
COCCNC(=O)c1ccc2nn(CC3CCN(C(=O)c4ccc(Cl)cc4)CC3)cc2c1C [Example 56, 2-{[1-(4-chlorobenzoyl)piperidin-4-yl]methyl}-N-(2-methoxyethyl)-4-methyl-2H-indazol-5-carboxamide] | 0.0131 | xxx (xxx > 100) | xxx (xxx > 100) |  |  | 12 | 2 | 
CC(C)Oc1ccc2c(=O)c3cc(C(=O)O)ccc3oc2c1 [AH6809, reference compound] |  |  |  |  |  |  |  | ca. 30%
Cc1c(C(=O)NCC(F)(F)F)ccc2nn(CC3CCN(C(=O)c4ccc(Oc5ccc(C(F)(F)F)nc5)cc4)CC3)cc12 [Example 303, 4-methyl-N-(2,2,2-trifluoroethyl)-2-{[1-(4-{[6-(trifluoromethyl)pyridin-3-yl]-oxy}benzoyl)piperidin-4-yl]methyl}-2H-indazol-5-carboxamide] | 0.0139 | xxx (xxx > 100) | xxx (xxx > 100) | 47 | 38 |  |  | 
Cc1c(C(=O)NCCN2CCOCC2)ccc2nn(CC3CCN(C(=O)c4ccc(Cl)cc4)CC3)cc12 [Example 62, 2-{[1-(4-chlorobenzoyl)piperidin-4-yl]methyl}-4-methyl-N-(2-morpholinoethyl)-2H-indazol-5-carboxamide] | 0.674 | xx (xx: 10-100) | xx (xx: 10-100) |  |  |  |  | 
Cc1ccc(Oc2ccc(C(=O)N3CCC(Cn4cc5c(C)c(C(=O)NCC(F)(F)F)ccc5n4)CC3)cc2)cc1 [Example 285, 4-methyl-2-({1-[4-(4-methylphenoxy)benzoyl]piperidin-4-yl}methyl)-N-(2,2,2-trifluoroethyl)-2H-indazol-5-carboxamide] | 0.1 | xxx (xxx > 100) | xxx (xxx > 100) |  |  |  |  | 
COCCNC(=O)c1ccc2nn(CC3CCN(C(=O)c4ccc(C)cc4F)CC3)cc2c1C [Example 9, 2-{[1-(2-fluoro-4-methylbenzoyl)piperidin-4-yl]methyl}-N-(2-methoxyethyl)-4-methyl-2H-indazol-5-carboxamide] | 0.0172 | xxx (xxx > 100) | xxx (xxx > 100) |  |  |  |  | 
COCCNC(=O)c1cc2cn(CC3CN(C(=O)c4ccc(C(F)(F)F)c(F)c4)C3)nc2cc1C [Example 184, 2-({1-[3-fluoro-4-(trifluoromethyl)benzoyl]azetidin-3-yl}methyl)-N-(2-methoxy-ethyl)-6-methyl-2H-indazol-5-carboxamide] | 0.0768 | xxx (xxx > 100) | xxx (xxx > 100) |  |  |  |  | 
COCCNC(=O)c1cc2cn(CC3CN(C(=O)c4ccc(Cl)cc4)C3)nc2cc1C [Example 178, 2-{[1-(4-chlorobenzoyl)azetidin-3-yl]methyl}-N-(2-methoxyethyl)-6-methyl-2H-indazol-5-carboxamide] | 0.0683 | xxx (xxx > 100) | xxx (xxx > 100) |  |  |  |  | 
COCCNC(=O)c1cc2cn(CC3CCN(C(=O)c4ccc(Cl)c(C(F)(F)F)c4)CC3)nc2cc1C [Example 209, 2-({1-[4-chloro-3-(trifluoromethyl)benzoyl]piperidin-4-yl}methyl)-N-(2-methoxyethyl)-6-methyl-2H-indazol-5-carboxamide] | 0.0251 | xxx (xxx > 100) | xxx (xxx > 100) |  |  |  |  | 

More lines, in order of falling IC50 [1], values ahead:

IC50 [1] [µM] | Selectivity hEP2/hEP4 [2] | Selectivity hEP2/hDP (human PGD receptor) | SMILES | inhibition at 1 µM (cumulus-oocyte complexes) [%] | inhibition at 0.5 µM (cumulus-oocyte complexes) [%] | % Pregnancies/"timed mating" [3] [%] | Pregnancies [3] | suppression of the cumulus expansion (cumulus-oocyte complexes; concentration of 100-200 μM, PGE2 0.3 μM)
0.0119 | xxx (xxx > 100) | xxx (xxx > 100) | COCCNC(=O)c1ccc2nn(CC3CCN(C(=O)c4ccc(Oc5ccc(F)cc5)cc4)CC3)cc2c1OC(F)F [Example 226, 4-(difluoromethoxy)-2-({1-[4-(4-fluorophenoxy)benzoyl]piperidin-4-yl}methyl)-N-(2-methoxyethyl)-2H-indazol-5-carboxamide] |  |  |  |  | 
0.01 | xxx (xxx > 100) | xxx (xxx > 100) | COCCNC(=O)c1cc2cn(CC3CN(C(=O)c4ccc(-c5ccc(F)cc5)cc4)C3)nc2cc1C [Example 204, 2-({1-[(4′-fluorobiphenyl-4-yl)carbonyl]azetidin-3-yl}methyl)-N-(2-methoxy-ethyl)-6-methyl-2H-indazol-5-carboxamide] |  |  |  |  | 
0.00626 | xxx (xxx > 100) | xxx (xxx > 100) | COCCNC(=O)c1ccc2nn(CC3CCN(C(=O)c4ccc(Oc5ccc(C(F)(F)F)cn5)cc4)CC3)cc2c1C [Example 345, N-(2-methoxyethyl)-4-methyl-2-{[1-(4-{[5-(trifluoromethyl)pyridin-2-yl]oxy}-benzoyl)piperidin-4-yl]methyl}-2H-indazol-5-carboxamide] | 36 | 18 |  |  | 
0.00594 | xxx (xxx > 100) | xxx (xxx > 100) | Cc1c(C(=O)NCC(F)(F)F)ccc2nn(CC3CCN(C(=O)c4ccc(Oc5ccc(C(F)(F)F)cc5)cc4)CC3)cc12 [Example 291, 4-methyl-N-(2,2,2-trifluoroethyl)-2-[(1-{4-[4-(trifluoromethyl)phenoxy]-benzoyl}piperidin-4-yl)methyl]-2H-indazol-5-carboxamide] | 73 | 76 |  |  | 
0.00511 | xxx (xxx > 100) | xxx (xxx > 100) | COCCNC(=O)c1ccc2nn(CC3CCN(C(=O)c4ccc(-c5ccc(F)cc5)cc4)CC3)cc2c1C [Example 5, 2-({1-[(4′-fluorobiphenyl-4-yl)carbonyl]piperidin-4-yl}methyl)-N-(2-methoxy-ethyl)-4-methyl-2H-indazol-5-carboxamide] | 59 | 56 |  |  | 
